# Laboratory results from US20120214846A1, “HEXAHYDROCYCLOPENTYL[F]INDAZOLE PYRIDYL ETHANOLS AND DERIVATIVES THEREOF AS SELECTIVE GLUCOCORTICOID RECEPTOR MODULATORS” (MERCK SHARP & DOHME CORP, priority 2009, published 2012).
# Where two headings read alike, the source gives them in different places.
# What was measured:
# [1] = Solubility at pH 2; type: physicochemical
# [2] = target: T1, GR (Homo sapiens, UniProt P04150); experiment: Transrepression Assay (GITAR), TNFα-β-lactamase reporter, U937 cells; type: cell-based; parameters: U937 cells contain an endogenous glucocorticoid receptor (GR); endogenous in cells; host or cells: U937 cells stably transfected with the TNF-alpha promoter beta-lactamase reporter
# T1 sequence (P04150 1-777): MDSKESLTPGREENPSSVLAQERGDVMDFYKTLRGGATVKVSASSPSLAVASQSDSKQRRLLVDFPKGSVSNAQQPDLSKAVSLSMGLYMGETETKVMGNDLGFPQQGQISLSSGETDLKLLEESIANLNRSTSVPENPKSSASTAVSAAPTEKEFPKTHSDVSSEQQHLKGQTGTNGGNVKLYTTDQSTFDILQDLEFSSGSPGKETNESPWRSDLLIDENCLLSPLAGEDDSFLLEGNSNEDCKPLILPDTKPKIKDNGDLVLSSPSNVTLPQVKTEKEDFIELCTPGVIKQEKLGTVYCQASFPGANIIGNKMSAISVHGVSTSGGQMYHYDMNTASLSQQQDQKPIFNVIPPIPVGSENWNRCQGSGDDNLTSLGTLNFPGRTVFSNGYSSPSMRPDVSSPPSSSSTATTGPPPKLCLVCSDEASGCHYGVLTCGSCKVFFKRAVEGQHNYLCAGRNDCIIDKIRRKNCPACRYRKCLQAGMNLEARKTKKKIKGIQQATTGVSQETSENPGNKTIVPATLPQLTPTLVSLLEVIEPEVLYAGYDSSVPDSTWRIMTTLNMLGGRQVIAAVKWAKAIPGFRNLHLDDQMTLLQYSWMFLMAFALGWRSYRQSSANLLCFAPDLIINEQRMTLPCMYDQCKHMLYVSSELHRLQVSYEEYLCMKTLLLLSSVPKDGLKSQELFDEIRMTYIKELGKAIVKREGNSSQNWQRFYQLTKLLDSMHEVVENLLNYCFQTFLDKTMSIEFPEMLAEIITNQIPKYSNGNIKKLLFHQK
# Text: This assay assesses the ability of test compounds to control transcription from the TNFα-β-lactamase reporter gene in U937 cells, a human myelomonocytic leukemia cell line that naturally expresses the human GR. The assay measures compound dependent-repression of the TNFa promoter linked to a reporter gene.
# The human U937 cells that had been stablely transfected with the TNF-α promoter driving […] are used for this assay. U937 cells contain an endogenous glucocorticoid receptor (GR). […] 50,000 cells/well are plated in 96 well black-walled plates the day of assay. Test compounds are added 10 μL/well, and cells are incubated at 37° C. for 30˜45 min. For assaying compounds, first dilute 1:10 in DMSO to make 1 mM, then further dilute 1:100 in medium to make 10× stock prior to adding to the cells. Add 50 ng/ml PMA (Sigma, cat#P8139) 10 μL/well to a final concentration 5 ng/ml, and 1 μg/ml LPS (Sigma, cat#L4130) 10 μL/well to a final concentration 100 ng/ml. Incubate cells at 37° C. overnight for ˜18 hr. PMA is stored frozen as 100 μg/ml stock in DMSO. Dilute 1:10 in DMSO for a working stock of […] and store at −20 C. For assaying, dilute the 10 μg/ml working stock 1:200 in medium to make a 10× solution (50 ng/ml). Store frozen LPS at 1 mg/ml in PBS, dilute 1:1000 in medium to make 10× (1 μg/ml) for the assay. Add 6× loading buffer (CCF2-AM) 20 μL/well, and incubate at room temperature for 70˜90 min. […] The activity repressed by 100 nM dexamethasone alone is set as 100% activity.
# [3] = target: T1, GR; experiment: GR Ligand Binding Assay (GR BIND), HeLa cell lysate, 3H-DEX; parameters: endogenous in cells; host or cells: HeLa (ATCC) cell lysate supernatant
# Procedure: Binding Buffer: TEGM (10 mM Tris-HCl, 1 mM EDTA, 10% glycerol, 1 mM beta-mecaptoethanol, 10 mM Sodium Molybdate, pH 7.2)
# Phenol red-free Trypsin-EDTA is diluted in the same PBS 1:10. The cell layers are rinsed with 1× Trypsin, extra Trypsin is poured out, and the cell layers are incubated at 37° C. for ˜2 min. The flask is tapped and checked for signs of cell detachment. Once the cells begin to slide off the flask, the complete media is added. The cells are counted at this point, then diluted to the appropriate concentration and split into flasks or dishes for further culturing (Usually 1:3 to 1:6 dilution).
# The cell pellet is washed twice with TEGM (10 mM Tris-HCl, 1 mM EDTA, 10% glycerol, 1 mM beta-mercaptoethanol, 10 mM Sodium Molybdate, pH 7.2). […] The cell suspension is snap frozen in liquid nitrogen or ethanol/dry ice bath and transferred to −80° C. freezer on dry ice. Before setting up the binding assay, the frozen samples are left on ice-water to just thaw (˜1 hr). Then the samples are centrifuged at 12,500 g to 20,000 g for 30 min at 4° C. The supernatant is used to set-up assay right away. If using 50 μL of supernatant, the test compound can be prepared in 50 μL of the TEGM buffer.
# 1×TEGM buffer is prepared, and the isotope-containing assay mixture is prepared in the following order: EtOH (2% final concentration in reaction), 3H-DEX (Amersham Biosciences) and 1×TEGM. [e.g. For 100 samples, 200 μL (100×2) of EtOH+4.25 μL of 1:10 3H-Dex stock+2300 μL (100×23) 1×TEGM]. The compound is serially diluted, e.g., if starting final conc. is 1 μM, and the compound is in 25 μL of solution, for duplicate samples, 75 μL of 4×1 μM solution is made and 3 μL of 100 μM is added to 72 μL of buffer, and 1:5 serial dilution.
# 25 μL of 3H-DEX (6 nM) trace and 25 μl, compound solution are first mixed together, followed by addition of 50 μL receptor solution. The reaction is gently mixed, spun briefly at about 200 rpm and incubated at 4° C. overnight. 100 μL of 50% HAP slurry is prepared and added to the incubated reaction which is then vortexed and incubated on ice for 5 to 10 minutes. The reaction mixture is vortexed twice more to resuspend HAP while incubating reaction. The samples in 96-well format are then washed in wash buffer using The FilterMate™ Universal Harvester plate washer (Packard). The washing process transfers HAP pellet containing ligand-bound expressed receptor to Unifilter-96 GF/B filter plate (Packard). The HAP pellet on the filter plate is incubated with 50 μL of MICROSCINT (Packard) scintillint for 30 minutes before being counted on the TopCount microscintillation counter (Packard). IC50s are calculated using DEX as a reference.
# [4] = pH 2, read-out: Solubility At pH 2
# [5] = U937 cells, activity repressed by 100 nM dexamethasone set as 100%
# [6] = U937 cells, inflection point, read-out: Transrepression U937 Cells GITAR IP
# [7] = HeLa cell lysate, 3H-DEX, read-out: GR BIND Ki
# [8] = Table 4, literature compounds, read-out: GITAR IP
# [9] = U-937, Table 4, literature compounds, read-out: GITAR EMAX
# [10] = Table 4, literature compounds, read-out: GR BIND
Compound,"solubility [1, 4] [µM]","Transrepression U937 Cells GITAR Emax [2, 5] [%]","EC50 [2, 6] [µM]","Ki [3, 7] [µM]","solubility ([1]; Table 4, literature compounds)","EC50 [2, 8] [µM]","Emax [2, 9] [%]","Ki [3, 10] [µM]","solubility ([1]; pH 2, aqueous buffer, pH 2, read-out: Solubility At pH 2) [µM]","Emax ([2]; U-937, U937 cells, activity repressed by 100 nM dexamethasone set as 100%, read-out: Transrepression U937 Cells GITAR Emax) [%]"
"C[C@]12Cc3cnn(-c4ccc(F)cc4)c3C=C1CC[C@@]2(O)CC(O)c1cc(Cl)ccn1 (single isomer, unassigned) [Example 8b]",119,91.1,0.0237,0.0021,,,,,,
"C[C@]12Cc3cnn(-c4ccc(F)cc4)c3C=C1CC[C@@]2(O)CC(O)c1cc(Br)ccn1 (single isomer, unassigned) [Example 10a]",7,97.5,0.23,0.0034,,,,,,
"C[C@]12Cc3cnn(-c4ccc(F)cc4)c3C=C1CC[C@@]2(O)CC(O)c1cc(Br)ccn1 (single isomer, unassigned) [Example 10b]",2,64.3,0.048,0.0017,,,,,,
"C[C@]12Cc3cnn(-c4ccc(F)cc4)c3C=C1CC[C@@]2(O)C#Cc1ccccc1 [Ex. 1 WO 04/075840 A2, reference compound]",,,,,poor,1.66,12.8,0.00118,,
"C[C@]12Cc3cnn(-c4ccc(F)cc4)c3C=C1CCC[C@@H]2[C@@H](O)Cc1ccccc1 [Ex. 22 WO 03/086294 A2, reference compound]",,,,,poor,0.242,76.8,0.00126,,
"C[C@]12Cc3cnn(-c4ccc(F)cc4)c3C=C1CCC[C@@H]2[C@@H](O)CCc1ccccc1 [Ex. 30 WO 03/086294 A2, reference compound]",,,,,poor,0.165,82.9,0.00121,,
"C[C@]12Cc3cnn(-c4ccc(F)cc4)c3C=C1CCC[C@@H]2[C@@H](O)c1ccccc1 [Ex. 35 WO 03/86294 A2, reference compound]",,,,,poor,0.2,78.8,0.00117,,
"CO[C@@]1(CCc2ccccc2Cl)CCC2=Cc3c(cnn3-c3ccc(F)cc3)C[C@@]21C [Ex. 103 WO 04/075840 A2, reference compound]",,,,,poor,0.191,93.3,0.00023,,
"COc1ccnc(C(O)C[C@]2(O)CCC3=Cc4c(cnn4-c4ccc(F)cc4)C[C@@]32C)c1 (stereo partly drawn) [Example 3, (4αS,5R)-1-(4-fluorophenyl)-5-[2-hydroxy-2-(4-methoxypyridin-2-yl)ethyl]-4α-methyl-1,4,4α,5,6,7-hexahydrocyclopenta[f]indazol-5-ol]",,,0.111,0.0044,,,,,174,81.3
